According to patent US20230219964A1, “ANTIBACTERIAL AND ANTIFUNGAL PLEUROMUTILIN CONJUGATES” (SYDDANSK UNIVERSITET, priority 2020, published 2023):
Values after ≈ are worked out from the molar mass of the structure shown. Where two headings read alike, the source gives them in different places.

How the values were obtained:
E. faecalis cells = assay: MIC in vitro broth micro-dilution assay, E. faecalis; format: cell-based, Enterococcus faecalis; settings: Enterococcus faecalis; lowest concentration to fully inhibit visible growth (OD600); clinical isolate; read-out: in vitro susceptibility (MIC) E. Faecalis
Procedure: (§1) Bacterial susceptibility was established through an in vitro cell-based broth micro-dilution assay. To produce accurate and reproducible MIC-values, a procedure was used which follows the guidelines set by the Clinical and Laboratory Standards Institute (CLSI, USA) and the European Committee on Antimicrobial Susceptibility Testing (EUCAST). The micro-dilutions were carried out in 96-well plates, according to FIG. 3, wherein column 1 is a growth control, Columns 2 to 11 are dilutions of 1×, 2×, 4×, 8×, 16×, 32×, 64×, 128×, 256×, 512× respectively, and column 12 is a sterile control. To further increase the reliability of each susceptibility test, inoculation involved the use of three independent overnight cultures (ON1-ON3) thus giving rise to […]. Furthermore, each ON was added to two individual dilution rows, giving rise to […]. The standard inoculum was set to ˜5-10^5 colony-forming units (CFU) mL^−1. This was verified by dilution onto agar plates after each overall run.
(§2) The applied procedure was:
(§3) 1.1 MH or BHI agar plates for dilutions were created, 1 plate per overnight (ON) culture and MH or BHI media. 1.2 Day 1: Preparation of ON cultures of the bacterial strain in question, by inoculation of a single colony in 5 mL of MH or BHI media. Then incubation at 37° C. with aeration for approximately 16-20 hours. Biological triplicates were created by inoculation from 3 different colonies per strain.
(§4) 1.3 Day 2: A 96-well plate with the antibiotic/compound in question was prepared as according to FIG. 3: 1.4 In a 15 mL falcon tube, an appropriate volume of a 1000 μg/mL antibiotic/compound DMSO stock was diluted with MH or BHI media such that a 2× concentration and total volume of 10 mL was achieved. 1.5 A multi-channel pipette was used in the following. 1.6 Column 1 was used for growth control, so no antibiotic/compound was added to that column. 1.7 200 μl of 2× concentration of the antibiotic/compound was added to column 2. Technical duplicates were always created, thus 2 columns per ON culture. 1.8 100 μl of MH or BHI media was added to columns 1, 3-11 and 200 μl of MH or BHI media to column 12. 1.9 100 μl was transferred from column 2 to column 3. The same pipetting tips were used to transfer 100 μL from column 3 to 4. This scheme was repeated until column 11 where 100 μl was discarded after re-suspending. Column 12 was used as a sterile control, so no antibiotic/compound was added to that column. Each transferring involved pipetting up and down 5 to 7 times. 1.10 The plates were fully dried for CFU in the 42° C. incubator, 4× dilutions in triplicates per one plate.
(§5) 1.11 The optical density of bacterial cells in the ON culture was measured at wavelength 600 nm (OD600). Then the ON culture was diluted to an OD600=0.1. 1.12 Then the OD600 was re-measured to make certain that it was between 0.08 and 0.13. 1.13 The prepared 0.1 culture of 1.12 was diluted 100× more by transferring of 100 μl thereof, to 10 ml of MH or BHI media (enough for a 96-well plate). 1.14 Then 200 μl of the 100× dilution in 1.13 was transferred to Eppendorf tubes and kept cold until use. 1.15 100 μl of culture with an OD600 on approximately 0.001 was dispensed to each well of columns 1 to 11. 1.16 The plate was closed. Covered with aluminium foil and small holes were created with a 100-200 μL tip.
(§6) 1.17 The 96-well plate was then incubated at 37° C. with agitation and left for 16-hours.
(§7) 1.18 Verification of standard inoculum: The 100× diluted culture of 1.13 was used to create 10^−1 to 10^−4 dilutions in PBS/0.9% saline (100 μl sample to 900 μl PBS, mix well and continue until 10^−4). 1.19 10 μl of the 10^−2, 10^−3 and 10^−4 dilutions in 1.18 were spotted onto very dry MH or BHI plates in triplicates. 1.20 Then incubated overnight at 37° C. 1.21 The plates were examined manually or by using the plate reader.

[1] = system: vancomycin-resistant enterococci (VRE) cells, VRE 5; assay: MIC in vitro broth micro-dilution assay, VRE 5; format: cell-based; settings: Enterococcus, VRE; lowest concentration to fully inhibit visible growth (OD600); clinical isolate, ampicillin, ciprofloxacin, vancomycin and linezolid resistant; read-out: in vitro susceptibility (MIC) VRE 5
Procedure: as §1, §2, §3, §4, §5, §6, §7

[2] = system: Multi-resistant Staphylococcus aureus (MRSA) USA300 cells; assay: MIC in vitro broth micro-dilution assay, MRSA USA300; format: cell-based; settings: for MIC: Staphylococcus aureus
Procedure: as §1, §2, §3, §4, §5, §6, §7

[3] = system: vancomycin-resistant enterococci (VRE) cells, VRE 1; assay: MIC in vitro broth micro-dilution assay, VRE 1; format: cell-based; settings: Enterococcus, VRE; lowest concentration to fully inhibit visible growth (OD600); clinical isolate, ampicillin, ciprofloxacin and vancomycin resistant; read-out: in vitro susceptibility (MIC) VRE 1
Procedure: as §1, §2, §3, §4, §5, §6, §7

S. pneumonia cells = assay: MIC in vitro broth micro-dilution assay, S. pneumonia; format: cell-based, Streptococcus pneumonia; settings: Streptococcus pneumoniae; lowest concentration to fully inhibit visible growth (OD600); clinical isolate; read-out: in vitro susceptibility (MIC) S. Pneumonia
Procedure: as §1, §2, §3, §4, §5, §6, §7

[4] = lowest concentration to fully inhibit visible growth (OD600), ATCC strain, read-out: in vitro susceptibility (MIC) MRSA USA3000

Row | Compound | MIC (E. faecalis cells) [µg/mL] | MIC [1] [µg/mL] | MIC [2, 4] [µg/mL] | MIC ([2]; read-out: MIC value, MRSA USA300 cells) [µg/mL] | MIC [3] [µg/mL] | MIC (S. pneumonia cells) [µg/mL] | in vitro susceptibility (MIC) MRSA USA3000 ([2]; lowest concentration to fully inhibit visible growth (OD600), ATCC strain, listed as drawing 80) [µg/mL]
1 | C=C[C@]1(C)C[C@@H](OC(=O)Cn2cc(-c3ccc(CN4C(=O)c5ccccc5C4=O)cc3)nn2)[C@]2(C)[C@H](C)CC[C@]3(CCC(=O)[C@H]32)[C@@H](C)[C@@H]1O [C2, 22-[4-(4-((N-phthalimide)methyl)phenyl)-1H-1,2,3-triazol-1-yl]-22-deoxypleuromutilin] | 8 (≈ 12 µM) | > 8 | 0.25 (≈ 0.376 µM) |  | > 8 | 4 (≈ 6.02 µM) | 
2 | C=C[C@]1(C)C[C@@H](OC(=O)Cn2cc(-c3ccc(CO)cc3)nn2)[C@]2(C)[C@H](C)CC[C@]3(CCC(=O)[C@H]32)[C@@H](C)[C@@H]1O [C4, 22-[4-(4-(hydroxymethyl)phenyl)-1H-1,2,3-triazol-1-yl]-22-deoxypleuromutilin] | 2 (≈ 3.73 µM) | 1 (≈ 1.87 µM) | 0.25 (≈ 0.467 µM) |  | 1 (≈ 1.87 µM) | 4 (≈ 7.47 µM) | 
3 | C=C[C@]1(C)C[C@@H](OC(=O)Cn2cc(-c3ccc(Cn4cnc5c(N)ncnc54)nc3)nn2)[C@]2(C)[C@H](C)CC[C@]3(CCC(=O)[C@H]32)[C@@H](C)[C@@H]1O [C7, 22-[4-(6-((6-Amino-9H-purin-9-yl)methyl)pyridin-3-yl)-1H-1,2,3-triazol-1-yl]-22-deoxypleuromutilin] | 0.25 (≈ 0.382 µM) | 0.12 (≈ 0.184 µM) |  |  | 0.12 (≈ 0.184 µM) | 0.25 (≈ 0.382 µM) | 0.03
4 | C=C[C@]1(C)C[C@@H](OC(=O)Cn2cc(-c3ccc(Cn4cnc5c(N6CCNCC6)ncnc54)nc3)nn2)[C@]2(C)[C@H](C)CC[C@]3(CCC(=O)[C@H]32)[C@@H](C)[C@@H]1O [C10, 22-[4-(6-((6-(piperazin-1-yl)-9H-purin-9-yl)methyl)pyridin-3-yl)-1H-1,2,3-triazol-1-yl]-22-deoxypleuromutilin] | 0.03 (≈ 0.0415 µM) | 0.12 (≈ 0.166 µM) | 0.12 to 0.25 (≈ 0.166 to 0.346 µM) |  | 0.03 (≈ 0.0415 µM) | 0.03 (≈ 0.0415 µM) | 
5 | C=C[C@]1(C)C[C@@H](OC(=O)Cn2cc(-c3ccc(Cn4cnc5c(N6CCNCC6)ncnc54)cc3)nn2)[C@]2(C)[C@H](C)CC[C@]3(CCC(=O)[C@H]32)[C@@H](C)[C@@H]1O [C11, 22-[4-(4-((6-(piperazin-1-yl)-9H-purin-9-yl)methyl)phenyl)-1H-1,2,3-triazol-1-yl]-22-deoxypleuromutilin] | 0.12 (≈ 0.166 µM) | 0.12 (≈ 0.166 µM) | 0.25 (≈ 0.346 µM) |  | 0.06 (≈ 0.0831 µM) | 0.12 (≈ 0.166 µM) | 
6 | C=C[C@]1(C)C[C@@H](OC(=O)Cn2cc(-c3cccc(NC(=O)c4ccccc4)c3)nn2)[C@]2(C)[C@H](C)CC[C@]3(CCC(=O)[C@H]32)[C@@H](C)[C@@H]1O [C14, 22-[4-(3-benzamidophenyl)-1,2,3-triazole-1-yl]-22-deoxypleuromutilin] |  |  | 0.5 (≈ 0.8 µM) |  |  |  | 
7 | C=C[C@]1(C)C[C@@H](OC(=O)Cn2cc(-c3cccc(Oc4nc(N)nc5[nH]cnc45)c3)nn2)[C@]2(C)[C@H](C)CC[C@]3(CCC(=O)[C@H]32)[C@@H](C)[C@@H]1O [C17, 22-[4-(3-((2-amino-9H-purin-6-yl)oxy)phenyl)-1,2,3-triazole-1-yl]-22-deoxypleuromutilin] |  |  | 0.12 (≈ 0.183 µM) |  |  |  | 
8 | C=C[C@]1(C)C[C@@H](OC(=O)CSC2CC[C@@H](N)C[C@H]2O)[C@]2(C)[C@H](C)CC[C@]3(CCC(=O)[C@H]32)[C@@H](C)[C@@H]1O.CC(=O)O (some centres unmarked) [Lefamulin.Ac, reference compound] | 0.06 | 0.12 |  |  | 0.12 | 0.12 | 
9 | C=C[C@]1(C)C[C@@H](CC(=O)Cn2cc(-c3ccc(-n4cnc5c(N)ncnc54)cc3)nn2)[C@]2(C)[C@H](C)CC[C@]3(CCC(=O)[C@H]32)[C@@H](C)[C@@H]1O [prior art compound 8, reference compound] |  |  | 0.5 (≈ 0.785 µM) |  |  |  | 

More lines, now with the values ahead:

Row | MIC (E. faecalis cells) [µg/mL] | MIC [1] [µg/mL] | MIC [2, 4] [µg/mL] | MIC ([2]; read-out: MIC value, MRSA USA300 cells) [µg/mL] | MIC [3] [µg/mL] | MIC (S. pneumonia cells) [µg/mL] | in vitro susceptibility (MIC) MRSA USA3000 ([2]; lowest concentration to fully inhibit visible growth (OD600), ATCC strain, listed as drawing 80) [µg/mL] | Compound
10 | 0.25 (≈ 0.383 µM) | 0.25 (≈ 0.383 µM) | 0.03 (≈ 0.046 µM) | 0.03 (≈ 0.046 µM) | 0.25 (≈ 0.383 µM) | 0.05 (≈ 0.0766 µM) |  | C=C[C@]1(C)C[C@@H](OC(=O)Cn2cc(-c3ccc(Cn4cnc5c(N)ncnc54)cc3)nn2)[C@]2(C)[C@H](C)CC[C@]3(CCC(=O)[C@H]32)[C@@H](C)[C@@H]1O [C1]
11 |  |  | 0.06 (≈ 0.0894 µM) |  |  |  |  | C=C[C@]1(C)C[C@@H](OC(=O)Cn2cc(-c3ccc(Cn4cnc5c(N)nc(F)nc54)cc3)nn2)[C@]2(C)[C@H](C)CC[C@]3(CCC(=O)[C@H]32)[C@@H](C)[C@@H]1O [C5, 22-[4-(4-((6-Amino-2-fluoro-9H-purin-9-yl)methyl)phenyl)-1H-1,2,3-triazol-1-yl]-22-deoxypleuromutilin]
12 | 0.25 (≈ 0.374 µM) | 0.25 (≈ 0.374 µM) | 0.06 (≈ 0.0898 µM) |  | 0.25 (≈ 0.374 µM) | 0.25 (≈ 0.374 µM) |  | C=C[C@]1(C)C[C@@H](OC(=O)Cn2cc(-c3ccc(Cn4cnc5c(N)nc(N)nc54)cc3)nn2)[C@]2(C)[C@H](C)CC[C@]3(CCC(=O)[C@H]32)[C@@H](C)[C@@H]1O [C6, 22-[4-(4-((2,6-Diamino-9H-purin-9-yl)methyl)phenyl)-1H-1,2,3-triazol-1-yl]-22-deoxypleuromutilin]
13 | 0.25 (≈ 0.366 µM) | 0.12 (≈ 0.176 µM) | 0.06 (≈ 0.0879 µM) |  | 0.12 (≈ 0.176 µM) | 0.25 (≈ 0.366 µM) |  | C=C[C@]1(C)C[C@@H](OC(=O)Cn2cc(-c3ccc(Cn4cnc5c(N)ncnc54)c(OC)c3)nn2)[C@]2(C)[C@H](C)CC[C@]3(CCC(=O)[C@H]32)[C@@H](C)[C@@H]1O [C8, 22-[4-(4-((6-Amino-9H-purin-9-yl)methyl)-3-methoxyphenyl)-1H-1,2,3-triazol-1-yl]-22-deoxypleuromutilin]
14 | 0.25 (≈ 0.374 µM) | 0.25 (≈ 0.374 µM) | 0.03 (≈ 0.0449 µM) |  | 0.25 (≈ 0.374 µM) | 0.25 (≈ 0.374 µM) |  | C=C[C@]1(C)C[C@@H](OC(=O)Cn2cc(-c3ccc(Cn4cnc5c(N)ncnc54)c(O)c3)nn2)[C@]2(C)[C@H](C)CC[C@]3(CCC(=O)[C@H]32)[C@@H](C)[C@@H]1O [C9, 22-[4-(4-((6-amino-9H-purin-9-yl)methyl)-3-hydroxyphenyl)-1H-1,2,3-triazol-1-yl]-22-deoxypleuromutilin]
15 |  |  | 0.12 (≈ 0.188 µM) |  |  |  |  | C=C[C@]1(C)C[C@@H](OC(=O)Cn2cc(-c3cccc(Oc4ncnc5[nH]cnc45)c3)nn2)[C@]2(C)[C@H](C)CC[C@]3(CCC(=O)[C@H]32)[C@@H](C)[C@@H]1O [C16, 22-[4-(3-((9H-purin-6-yl)oxy)phenyl)-1,2,3-triazole-1-yl]-22-deoxypleuromutilin]
16 |  |  | 0.06 (≈ 0.0942 µM) |  |  |  |  | C=C[C@]1(C)C[C@@H](CC(=O)Cn2cc(-c3cccc(-n4cnc5c(N)ncnc54)c3)nn2)[C@]2(C)[C@H](C)CC[C@]3(CCC(=O)[C@H]32)[C@@H](C)[C@@H]1O [prior art compound 7, reference compound]
